These results are taken from US8685974B2 (Bayer CropScience AG, priority 2009, dated 2014).

Marks after values point to notes of the source that are not given here.

The conditions of the first data set: pH 2.3.
Regarding `CC(C)n1ncc(-c2ccncc2)c1-c1ccc(Cl)s1` [Example 39], the log p was 1.63^[a];. On the same count and under the same terms, with `Clc1cc(-c2c[nH]nc2-c2ccc(Cl)s2)ccn1` [Example 40] the figure was 2.75^[a]; with `CCC(CC)n1ncc(-c2ccncc2)c1-c1ccc(Cl)s1` [Example 41], 2.08^[a].

In the case of `Clc1ccc(-c2c(-c3ccncc3)cnn2Cc2ccccc2)s1` [Example 42], the log p is 1.94^[a].

Regarding `Clc1ccc(-c2nn(Cc3ccccc3)cc2-c2ccncc2)s1` [Example 43], the log p was 2.35^[a]. The same measure, in the same setting: the result for `CCCNc1nccc(-c2c[nH]nc2-c2ccc(Cl)s2)n1` [Example 65] reads 1.75^[a].

The data set is the same for the next values; noted with them: pH 2.7.
As for “4-[3-(5-Chloro-2-thienyl)-1-isobutyl-1H-pyrazol-4-yl]-N-propylpyridin-2-amine 1-oxide”, the “logP (pH2.7)” value turned out to be 1.90. Take “4-[5-Bromo-3-(5-chloro-2-thienyl)-1-(4-methoxybenzyl)-1H-pyrazol-4-yl]pyridine and 4-[3-bromo-5-(5-chloro-2-thienyl)-1-(4-methoxybenzyl)-1H-pyrazol-4-yl]pyridine”: the “logP (pH2.7)” value was found to be 3.53 and the “logP (pH2.7), minor isomer” value is given as 3.0.

`CC(C)Cn1cc(-c2cc[n+]([O-])c(N)c2)c(-c2ccc(Cl)s2)n1` [2-Amino-4-[1-isobutyl-3-(5-chloro-2-thienyl)-1H-pyrazol-4-yl]pyridine N oxide]: the “logP (pH2.7)” value is recorded as 2.39. Same read-out and setting: with `CC(C)Cn1ncc(-c2cc[n+]([O-])c(N)c2)c1-c1ccc(Cl)s1` [2-Amino-4-[1-isobutyl-5-(5-chloro-2-thienyl)-1H-pyrazol-4-yl]pyridine N oxide] the figure was 2.21. Turning to `CC(C)Cn1cc(-c2ccnc(N)c2)c(-c2ccc(Cl)s2)n1` [2-Amino-4-[1-isobutyl-(3/5)-(5-chloro-2-thienyl)-1H-pyrazol-4-yl]pyridine], the “logP (pH2.7)” value turned out to be 2.04 and the “logP (pH2.7), minor isomer” value is recorded as 1.93.

Take `CC(C)Cn1cc(-c2cc[n+]([O-])c(NCc3ccccc3)c2)c(-c2ccc(Cl)s2)n1` [2-Benzylamino-4-[1-isobutyl-3-(5-chloro-2-thienyl)-1H-pyrazol-4-yl]pyridine N oxide]: the “logP (pH2.7)” value turned out to be 3.65. Still for that read-out and setting: with `CC(C)Cn1ncc(-c2cc[n+]([O-])c(NCc3ccccc3)c2)c1-c1ccc(Cl)s1` [2-Benzylamino-4-[1-isobutyl-5-(5-chloro-2-thienyl)-1H-pyrazol-4-yl]pyridine N oxide] the figure was 3.48.

Regarding `CC(C)Cn1cc(-c2cc[n+]([O-])c(Cl)c2)c(-c2ccc(Cl)s2)n1` [2-Chloro-4-[1-isobutyl-3-(5-chloro-2-thienyl)-1H-pyrazol-4-yl]pyridine-N-oxyde], the “logP (pH2.7)” value was 2.82.

For `CC(C)Cn1ncc(-c2cc[n+]([O-])c(Cl)c2)c1-c1ccc(Cl)s1` [2-Chloro-4-[1-isobutyl-5-(5-chloro-2-thienyl)-1H-pyrazol-4-yl]pyridine-N-oxyde], the “logP (pH2.7)” value stood at 3.06. The same measure, in the same setting: with `[O-][n+]1ccc(-c2c[nH]nc2-c2ccc(Cl)s2)cc1Cl` [2-Chloro-4-[3-(5-chloro-2-thienyl)-1H-pyrazol-4-yl]pyridine N oxyde] the figure was 1.57; with `C#CCNc1cc(-c2cn(CC(C)C)nc2-c2ccc(Cl)s2)cc[n+]1[O-]` [2-Propargylamino-4-[1-isobutyl-3-(5-chloro-2-thienyl)-1H-pyrazol-4-yl]pyridine-N-oxyde], 2.70.

On to `C#CCNc1cc(-c2cnn(CC(C)C)c2-c2ccc(Cl)s2)cc[n+]1[O-]` [2-Propargylamino-4-[1-isobutyl-5-(5-chloro-2-thienyl)-1H-pyrazol-4-yl]pyridine-N-oxyde], for which the “logP (pH2.7)” value was found to be 2.92. Same read-out and setting: the result for `FC(F)(F)c1ccc(-c2c(-c3ccncc3)cnn2C2CCCCO2)s1` (centres unmarked) [4-[1-(2-tetrahydropyrannyl)-5-(5-trifluoromethyl-2-thienyl)-1H-pyrazol-4-yl]pyridine] reads 1.96. With `CC(C)n1cc(-c2ccncc2)c(-c2cccs2)n1` [4-[1-Isopropyl-(3/5)-(2-thienyl)-1H-pyrazol-4-yl]pyridine], the “logP (pH2.7)” value is 1.27 and the “logP (pH2.7), minor isomer” value is recorded as 1.33.

Turning to `CC(C)n1cc(-c2ccncc2)c(-c2ccc(Br)s2)n1` [4-[1-Isopropyl-(3/5)-(5-bromo-2-thienyl)-1H-pyrazol-4-yl]pyridine], the “logP (pH2.7)” value is 1.88 and the “logP (pH2.7), minor isomer” value worked out at 1.76. Consider `CC(C)Cn1cc(-c2ccncc2)c(-c2cc3sccc3s2)n1` [4-[1-isobutyl-(3/5)-(3-thieno[3,2-b]thiophen-2-yl)-1H-pyrazol-4-yl]pyridine], for which the “logP (pH2.7)” value was found to be 2.07 and the “logP (pH2.7), minor isomer” value was found to be 2.02. Taken in the same sequence, the figures for `CC(C)n1cc(-c2ccncc2)c(-c2ccc(C(F)(F)F)s2)n1` [4-[1-isopropyl-(3/5)-(5-trifluoromethyl-2-thienyl)-1H-pyrazol-4-yl]pyridine] were 2.20 and 2.08.

For `CCC(C)n1cc(-c2cc[n+]([O-])cc2)c(-c2ccc(Cl)s2)n1` (centres unmarked) [4-[1-sec-butyl-3-(5-chloro-2-thienyl)-1H-pyrazol-4-yl]pyridine N oxide], the “logP (pH2.7)” value is 2.5.

`CCC(C)n1nc(-c2ccc(Cl)s2)c(-c2ccncc2)c1Br` (centres unmarked) [4-[5-Bromo-1-secbutyl-(3/5)-(5-chloro-2-thienyl)-1H-pyrazol-4-yl]pyridine]: the “logP (pH2.7)” value was found to be 3.69.

For the molecule `CC(C)Nc1nccc(-c2cn(C3CCCC3)nc2-c2ccc(Cl)s2)n1` [4-[(3/5)-(5-Chloro-2-thienyl)-1-cyclopentyl-1H-pyrazol-4-yl]-2-(isopropylamino)pyrimidine], the “logP (pH2.7)” value was 3.61 and the “logP (pH2.7), minor isomer” value is reported as 3.33. `CC(C)n1cc(-c2ccnc(N=C(c3ccccc3)c3ccccc3)c2)c(-c2ccc(Cl)s2)n1` [4-[(3/5)-(5-Chloro-2-thienyl)-1-isopropyl-1H-pyrazol-4-yl]-N-(diphenylmethylene)pyridin-2-amine]: the “logP (pH2.7)” value came to 4.46 and the “logP (pH2.7), minor isomer” value is 3.96.

Regarding `CC(C)n1cc(-c2ccnc(N)c2)c(-c2ccc(Cl)s2)n1` [4-[(3/5)-(5-Chloro-2-thienyl)-1-isopropyl-1H-pyrazol-4-yl]pyridin-2-amine], the “logP (pH2.7)” value is listed as 1.78 and the “logP (pH2.7), minor isomer” value is reported as 1.72. Taken in the same sequence, the figures for `CC#Cc1c(-c2ccncc2)c(-c2ccc(Cl)s2)nn1C(C)C` [4-[(3/5)-(5-Chloro-2-thienyl)-1-isopropyl-5-(prop-1-yn-1-yl)-1H-pyrazol-4-yl]pyridine] were 2.78 and 2.21.

As to `CC#Cc1c(-c2ccncc2)c(-c2ccc(Cl)s2)nn1Cc1ccc(OC)cc1` [4-[(3/5)-(5-chloro-2-thienyl)-1-(4-methoxybenzyl)-5-(prop-1-yn-1-yl)-1H-pyrazol-4-yl]pyridine], the “logP (pH2.7)” value came to 3.11 and the “logP (pH2.7), minor isomer” value amounted to 2.61. Regarding `Clc1sc(-c2n[nH]cc2-c2ccncc2)c(Cl)c1Cl` [Example 2], the log p was 1.52^[b].

On to `CCC(C)n1ncc(-c2ccncc2)c1-c1ccc(Cl)s1` (centres unmarked) [Example 9], for which the log p is 1.91^[b]. Consider `CC(C)(C)n1ncc(-c2ccncc2)c1-c1ccc(Cl)s1` [Example 10], for which the log p is 1.95^[b]. The same measure, in the same setting: with `Clc1ccc(-c2c(-c3ccncc3)cnn2C2CCCCC2)s1` [Example 12] the figure was 2.26^[b]; with `Clc1ccc(-c2c(-c3ccncc3)cnn2C2CCCC2)s1` [Example 16], 2.13^[b]. Regarding `CC(n1ncc(-c2ccncc2)c1-c1ccc(Cl)s1)C(C)(C)C` (centres unmarked) [Example 19], the log p was 2.47^[b]. The same measure, in the same setting: with `Clc1ccc(-c2nn(-c3ccccc3)cc2-c2ccncc2)s1` [Example 22] the figure was 2.63^[b]; with `Clc1ccc(-c2c(-c3ccncc3)cnn2-c2ccccc2)s1` [Example 23], 1.88^[b]; with `CC(C)(C)Cn1ncc(-c2ccncc2)c1-c1ccc(Cl)s1` [Example 25], 2.17^[b]. The same measure, in the same setting: the result for `CC(C)CCn1cc(-c2ccncn2)c(-c2ccc(Cl)s2)n1` [Example 27] reads 3.8^[b]; that for `CC(C)CC(C)n1ncc(-c2ccncn2)c1-c1ccc(Cl)s1` (centres unmarked) [Example 28], 4.29^[b]; that for `CC(C)=CCn1ncc(-c2ccncn2)c1-c1ccc(Cl)s1` [Example 29], 3.44^[b]. On the same count and under the same terms, the result for `CC(C)n1ncc(-c2ccncn2)c1-c1ccc(Cl)s1` [Example 30] reads 2.94^[b]; that for `CCC(C)n1ncc(-c2ccncn2)c1-c1ccc(Cl)s1` (centres unmarked) [Example 31], 3.34^[b].

Consider `CC(C)C(C)n1ncc(-c2ccncn2)c1-c1ccc(Cl)s1` (centres unmarked) [Example 32], for which the log p is 3.8^[b]. For `CC(n1ncc(-c2ccncn2)c1-c1ccc(Cl)s1)C(C)(C)C` (centres unmarked) [Example 33], the log p is 4.46^[b]. In the case of `CC(C)(C)Cn1ncc(-c2ccncn2)c1-c1ccc(Cl)s1` [Example 34], the log p is 3.82^[b]. Same read-out and setting: the result for `Cc1ccc(-c2[nH]ncc2-c2ccncc2)s1` [Example 35] reads 0.77^[b]; that for `CC(=O)c1ccc(-c2[nH]ncc2-c2ccncc2)s1` [Example 36], 0.62^[b]. Same read-out and setting: the result for `CCCCNC(=O)c1ccc(-c2[nH]ncc2-c2ccncc2)s1` [Example 37] reads 0.0^[b]. Still for that read-out and setting: with `CC(C)n1ncc(-c2ccncc2)c1-c1ccc(Cl)s1` [Example 39] the figure was 1.7^[b]; with `Clc1ccc(-c2n[nH]c(Br)c2-c2ccncc2)s1` [Example 44], 1.4^[b].

With `C=CCn1cc(-c2ccncc2)c(-c2ccc(Cl)s2)n1` [Example 48], the log p is 1.65^[b] and the “logP value of the minor isomer (in parenthesis in column Isomer ratio [d])” value is “(1.50)”. The like results for `COCCn1cc(-c2ccncc2)c(-c2ccc(Cl)s2)n1` [Example 49] were, in that order, 1.42^[b] and “(1.29)”. Taken in the same sequence, the figures for `N#CCn1cc(-c2ccncc2)c(-c2ccc(Cl)s2)n1` [Example 53] were 1.4^[b] and “(1.10)”. Turning to `Clc1ccc(-c2n[nH]c(C3CC3)c2-c2ccncc2)s1` [Example 67], the log p is 1.36^[b].

Still in this data set, the particulars now being: pH 7.8.
As to `[O-][n+]1ccc(-c2c[nH]nc2-c2ccc(Cl)s2)cc1Cl` [Example 59], the log p is 1.57^[c].
